# Test: Antiproliferative activity against human A375P cells expressing BRAF V600E mutant after 72 hrs by CellTiter-Glo assay
# Type: functional, cell-based
row,Compound,IC50
1,O=C(Nc1cccc(-c2cnc3c(NC(=O)c4ccc(OC(F)(F)F)cc4)nccn23)c1)c1ccc(Cl)c(C(F)(F)F)c1,1310 nM
2,Nc1nccn2c(-c3cccc(NC(=O)c4cc(Cl)cc(Cl)c4)c3)cnc12,2940 nM
3,O=C(Nc1cccc(-c2cnc3c(NC(=O)c4ccccc4)cccn23)c1)c1ccc(Cl)c(C(F)(F)F)c1,> 30000 nM
4,O=C(Nc1cccc(-c2cnc3c(NC(=O)c4ccc(Br)cc4)nccn23)c1)c1ccc(F)c(Cl)c1,490 nM
5,COc1cccc(C(=O)Nc2cccc(-c3cnc4c(N)nccn34)c2)c1C,10100 nM
6,Nc1nccn2c(-c3cccc(NC(=O)c4ccc(F)c(Cl)c4)c3)cnc12,340 nM
7,O=C(Nc1cccc(-c2cnc3c(NC(=O)c4ccccc4)cccn23)c1)c1cccc(OC(F)(F)F)c1,> 30000 nM
8,O=C(Nc1cccc(-c2cnc3c(NC(=O)c4ccc(F)c(Cl)c4)nccn23)c1)Nc1ccc(F)cc1F,1550 nM
9,Nc1nccn2c(-c3cccc(NC(=O)c4cc(F)cc(F)c4)c3)cnc12,460 nM
10,Cc1cc(C)cc(C(=O)Nc2nccn3c(-c4cccc(NC(=O)c5ccc(Cl)c(C(F)(F)F)c5)c4)cnc23)c1,180 nM
11,O=C(Nc1cccc(-c2cnc3c(NC(=O)c4ccccc4)cccn23)c1)c1ccc(Br)cc1,6350 nM
12,O=C(Nc1cccc(-c2cnc3c(NC(=O)c4ccccc4)cccn23)c1)c1ccc(C(F)(F)F)cc1,1700 nM
13,Nc1nccn2c(-c3cccc(NC(=O)Nc4ccccc4)c3)cnc12,1140 nM
14,O=C(Nc1cccc(-c2cnc3c(NC(=O)c4ccccc4)cccn23)c1)c1cc(F)cc(F)c1,7940 nM
15,Nc1nccn2c(-c3cccc(NC(=O)Nc4ccc(Cl)c(C(F)(F)F)c4)c3)cnc12,11200 nM
16,O=C(Nc1cccc(-c2cnc3c(NC(=O)c4ccc(C(F)(F)F)cc4)nccn23)c1)Nc1ccc(Cl)c(C(F)(F)F)c1,1750 nM
17,Cc1ccc(C(=O)Nc2cccc(-c3cnc4c(NC(=O)c5ccccc5)cccn34)c2)cc1Cl,7070 nM
18,O=C(Nc1cccc(-c2cnc3c(NC(=O)c4cccc(Cl)c4Cl)nccn23)c1)Nc1ccc(F)cc1F,170 nM
19,O=C(Nc1cccc(-c2cnc3c(NC(=O)c4ccc(Cl)c(Cl)c4)nccn23)c1)c1ccc(Cl)c(C(F)(F)F)c1,660 nM
20,O=C(Nc1cccn2c(-c3cccc(NC(=O)c4cccc(Cl)c4Cl)c3)cnc12)c1ccccc1,> 30000 nM
21,O=C(Nc1cccc(-c2cnc3c(NC(=O)c4ccccc4)cccn23)c1)Nc1ccc(Cl)c(Cl)c1,4460 nM
22,COc1ccc(NC(=O)Nc2cccc(-c3cnc4c(N)nccn34)c2)cc1,3000 nM

row,Compound,IC50
1,O=C(Nc1cccc(-c2cnc3c(NC(=O)c4ccccc4)cccn23)c1)c1ccccc1,> 30000 nM
2,Nc1nccn2c(-c3cccc(NC(=O)c4ccc(Cl)c(Cl)c4)c3)cnc12,1210 nM
3,O=C(Nc1cccc(-c2cnc3c(NC(=O)c4ccccc4)cccn23)c1)c1cc(Cl)c(F)c(Cl)c1,7340 nM
4,Nc1nccn2c(-c3cccc(NC(=O)c4ccc(OC(F)(F)F)cc4)c3)cnc12,430 nM
5,Cc1cc(C)cc(C(=O)Nc2nccn3c(-c4cccc(NC(=O)c5ccc(F)c(Cl)c5)c4)cnc23)c1,1640 nM
6,O=C(Nc1cccc(-c2cnc3c(NC(=O)c4ccc(F)c(Cl)c4)nccn23)c1)Nc1ccc(Cl)c(C(F)(F)F)c1,1280 nM
7,O=C(Nc1cccc(-c2cnc3c(NC(=O)c4cccc(Cl)c4Cl)nccn23)c1)c1ccc(F)c(Cl)c1,23300 nM
8,O=C(Nc1cccc(-c2cnc3c(NC(=O)c4ccc(F)c(Cl)c4)nccn23)c1)c1ccc(F)c(Cl)c1,890 nM
9,COc1ccc(C(=O)Nc2cccc(-c3cnc4c(N)nccn34)c2)cc1OC,3840 nM
10,O=C(Nc1cccc(-c2cnc3c(NC(=O)c4ccc(C(F)(F)F)cc4)nccn23)c1)Nc1ccc(F)cc1F,2730 nM
11,O=C(Nc1cccc(-c2cnc3c(NC(=O)c4ccc(Cl)c(Cl)c4)nccn23)c1)c1ccc(F)c(Cl)c1,900 nM
12,O=C(Nc1cccc(-c2cnc3c(NC(=O)c4ccccc4)nccn23)c1)c1ccc(Cl)c(C(F)(F)F)c1,1820 nM
13,O=C(Nc1cccc(-c2cnc3c(NC(=O)c4ccc(Br)cc4)nccn23)c1)c1ccc(Cl)c(C(F)(F)F)c1,1800 nM
14,O=C(Nc1cccc(-c2cnc3c(NC(=O)c4cccc(C(F)(F)F)c4)nccn23)c1)c1ccc(Cl)c(C(F)(F)F)c1,12700 nM
15,O=C(Nc1cccc(-c2cnc3c(NC(=O)c4ccccc4)cccn23)c1)c1ccc(OC(F)(F)F)cc1,21300 nM
16,Nc1nccn2c(-c3cccc(NC(=O)Nc4ccc(C(F)(F)F)cc4)c3)cnc12,1100 nM
17,O=C(Nc1cccc(-c2cnc3c(NC(=O)c4cc(Cl)cc(Cl)c4)nccn23)c1)c1ccc(F)c(Cl)c1,1150 nM
18,Cc1ccc(C(=O)Nc2nccn3c(-c4cccc(NC(=O)Nc5ccc(F)cc5F)c4)cnc23)cc1Cl,1980 nM
19,O=C(Nc1cccc(-c2cnc3c(NC(=O)c4ccc(F)c(C(F)(F)F)c4)nccn23)c1)c1ccc(F)c(Cl)c1,1140 nM
20,Nc1nccn2c(-c3cccc(NC(=O)Nc4cccc(Cl)c4)c3)cnc12,5010 nM
21,O=C(Nc1cccc(Cl)c1)Nc1cccc(-c2cnc3c(NC(=O)c4ccccc4)cccn23)c1,7360 nM
22,O=C(Nc1cccc(-c2cnc3c(NC(=O)c4cc(Cl)c(F)c(Cl)c4)nccn23)c1)c1ccc(Cl)c(C(F)(F)F)c1,> 30000 nM

row,Compound,IC50
1,Nc1nccn2c(-c3cccc(NC(=O)c4ccc(Br)cc4)c3)cnc12,750 nM
2,O=C(Nc1cccc(-c2cnc3c(NC(=O)c4ccc(Br)cc4)nccn23)c1)Nc1ccc(F)cc1F,3750 nM
3,Cc1cc(C)cc(C(=O)Nc2cccc(-c3cnc4c(N)nccn34)c2)c1,820 nM
4,Cc1cc(C)cc(C(=O)Nc2nccn3c(-c4cccc(NC(=O)Nc5ccc(F)cc5F)c4)cnc23)c1,120 nM
5,O=C(Nc1cccc(-c2cnc3c(NC(=O)c4ccc(F)c(Cl)c4)nccn23)c1)c1ccc(Cl)c(C(F)(F)F)c1,2860 nM
6,Nc1nccn2c(-c3cccc(NC(=O)Nc4ccc(Br)cc4)c3)cnc12,4640 nM
7,Cc1ccc(NC(=O)Nc2cccc(-c3cnc4c(N)nccn34)c2)cc1,2700 nM
8,Nc1nccn2c(-c3cccc(NC(=O)Nc4ccc(F)c(Cl)c4)c3)cnc12,4340 nM
9,CCCS(=O)(=O)Nc1ccc(F)c(C(=O)c2c[nH]c3ncc(-c4ccc(Cl)cc4)cc23)c1F [VEMURAFENIB],370 nM
10,O=C(Nc1cccc(-c2cnc3c(NC(=O)c4cc(F)cc(F)c4)nccn23)c1)Nc1ccc(Cl)c(C(F)(F)F)c1,1940 nM
11,O=C(Nc1cccc(-c2cnc3c(NC(=O)c4cc(C(F)(F)F)cc(C(F)(F)F)c4)nccn23)c1)Nc1ccc(F)cc1F,110 nM
12,O=C(Nc1cccc(-c2cnc3c(NC(=O)c4cccc(C(F)(F)F)c4)nccn23)c1)Nc1ccc(Cl)c(C(F)(F)F)c1,560 nM
13,Nc1nccn2c(-c3cccc(NC(=O)c4ccc(F)c(C(F)(F)F)c4)c3)cnc12,2130 nM
14,Nc1nccn2c(-c3cccc(NC(=O)c4ccc(Cl)c(C(F)(F)F)c4)c3)cnc12,1410 nM
15,O=C(Nc1cccc(-c2cnc3c(NC(=O)c4ccccc4)cccn23)c1)Nc1ccc(Cl)c(C(F)(F)F)c1,2320 nM
16,COc1ccc(C(=O)Nc2cccc(-c3cnc4c(NC(=O)c5ccccc5)cccn34)c2)cc1OC,9470 nM
17,Nc1nccn2c(-c3cccc(NC(=O)c4cccc(Cl)c4Cl)c3)cnc12,640 nM
18,O=C(Nc1cccc(-c2cnc3c(NC(=O)c4cccc(OC(F)(F)F)c4)nccn23)c1)Nc1ccc(F)cc1F,950 nM
19,O=C(Nc1cccc(-c2cnc3c(NC(=O)c4cc(F)cc(F)c4)nccn23)c1)c1ccc(Cl)c(C(F)(F)F)c1,1620 nM
20,O=C(Nc1cccc(-c2cnc3c(NC(=O)c4ccc(OC(F)(F)F)cc4)nccn23)c1)c1ccc(F)c(Cl)c1,440 nM
21,O=C(Nc1cccc(-c2cnc3c(NC(=O)c4ccc(Cl)c(C(F)(F)F)c4)nccn23)c1)c1ccc(Cl)c(C(F)(F)F)c1,2460 nM
22,Nc1nccn2c(-c3cccc(NC(=O)c4ccccc4)c3)cnc12,850 nM

row,Compound,IC50
1,O=C(Nc1cccc(-c2cnc3c(NC(=O)c4ccc(F)c(C(F)(F)F)c4)nccn23)c1)Nc1ccc(F)cc1F,410 nM
2,O=C(Nc1cccc(-c2cnc3c(NC(=O)c4ccc(F)c(C(F)(F)F)c4)nccn23)c1)c1ccc(Cl)c(C(F)(F)F)c1,460 nM
3,O=C(Nc1cccc(-c2cnc3c(NC(=O)c4cccc(OC(F)(F)F)c4)nccn23)c1)c1ccc(Cl)c(C(F)(F)F)c1,1030 nM
4,Cc1ccc(C(=O)Nc2nccn3c(-c4cccc(NC(=O)c5ccc(F)c(Cl)c5)c4)cnc23)cc1Cl,980 nM
5,O=C(Nc1cccc(-c2cnc3c(NC(=O)c4cc(F)cc(F)c4)nccn23)c1)c1ccc(F)c(Cl)c1,450 nM
6,O=C(Nc1cccc(-c2cnc3c(NC(=O)c4ccc(Cl)c(Cl)c4)nccn23)c1)Nc1ccc(F)cc1F,1890 nM
7,O=C(Nc1ccc(C(F)(F)F)cc1)Nc1cccc(-c2cnc3c(NC(=O)c4ccccc4)cccn23)c1,3010 nM
8,O=C(Nc1cccc(-c2cnc3c(NC(=O)c4ccccc4)cccn23)c1)c1cccc(C(F)(F)F)c1,> 30000 nM
9,Nc1nccn2c(-c3cccc(NC(=O)Nc4cccc(C(F)(F)F)c4)c3)cnc12,5230 nM
10,Nc1nccn2c(-c3cccc(NC(=O)Nc4cccc(Cl)c4Cl)c3)cnc12,1270 nM
11,O=C(Nc1cccc(-c2cnc3c(NC(=O)c4ccccc4)cccn23)c1)c1ccc(F)c(C(F)(F)F)c1,> 30000 nM
12,Cc1ccc(C)c(C(=O)Nc2cccc(-c3cnc4c(NC(=O)c5ccccc5)cccn34)c2)c1,> 30000 nM
13,Nc1nccn2c(-c3cccc(NC(=O)Nc4ccc(F)cc4F)c3)cnc12,920 nM
14,Cc1ccc(C(=O)Nc2cccc(-c3cnc4c(N)nccn34)c2)cc1Cl,2270 nM
15,O=C(Nc1cccc(-c2cnc3c(NC(=O)c4cc(C(F)(F)F)cc(C(F)(F)F)c4)nccn23)c1)c1ccc(F)c(Cl)c1,1160 nM
16,O=C(Nc1cccc(-c2cnc3c(NC(=O)c4ccccc4)cccn23)c1)Nc1cccc(Cl)c1Cl,15900 nM
17,O=C(Nc1cccc(-c2cnc3c(NC(=O)c4cccc(C(F)(F)F)c4)nccn23)c1)Nc1ccc(F)cc1F,440 nM
18,O=C(Nc1cccc(-c2cnc3c(NC(=O)c4ccc(C(F)(F)F)cc4)nccn23)c1)c1ccc(Cl)c(C(F)(F)F)c1,1600 nM
19,O=C(Nc1cccc(-c2cnc3c(NC(=O)c4ccccc4)cccn23)c1)Nc1cccc(C(F)(F)F)c1,4290 nM
20,O=C(Nc1cccc(-c2cnc3c(NC(=O)c4ccccc4)cccn23)c1)Nc1cc(C(F)(F)F)cc(C(F)(F)F)c1,2080 nM

# From ChEMBL document CHEMBL3763041, “Design and synthesis of new imidazo[1,2-a]pyridine and imidazo[1,2-a]pyrazine derivatives with antiproliferative activity against melanoma cells” (Eur J Med Chem, 2016)
